Measurements reported in the supplement of paper PMC10307832.

Tests used:
Assay in all cases: relative viability (nuclei count vs DMSO), 5 days (fraction); higher = more cells survive
JZL-184 + Bortezomib = compound: C1CN(CCC1C(C2=CC3=C(C=C2)OCO3)(C4=CC5=C(C=C4)OCO5)O)C(=O)OC6=CC=C(C=C6)[N+](=O)[O-] [JZL-184] + CC(C)C[C@H](NC(=O)[C@H](Cc1ccccc1)NC(=O)c1cnccn1)B(O)O [Bortezomib] (partner 0.002 µM)
In short: (§1)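 Lung cancer cell lines in 1536-well plates were dosed by pin tool the day after seeding, either with one drug alone or with a fixed anchor-drug dose plus five library-drug doses (not always all listed) in √10 steps. After 5 days, cells were fixed and their nuclei stained in one step (final 0.05% Triton X-100, 1% formaldehyde, 1 ug/ml Hoechst), then counted on 4× images. Relative viability is the nuclei count in treated wells divided by that in vehicle wells. Values are medians of duplicate plates.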

JZL-184 + Linsitinib = compound: C1CN(CCC1C(C2=CC3=C(C=C2)OCO3)(C4=CC5=C(C=C4)OCO5)O)C(=O)OC6=CC=C(C=C6)[N+](=O)[O-] [JZL-184] + C[C@]1(O)C[C@@H](c2nc(-c3ccc4ccc(-c5ccccc5)nc4c3)c3c(N)nccn32)C1 [Linsitinib] (partner 1 µM)
In short: as §1

JZL-184 + Phenformin = compound: C1CN(CCC1C(C2=CC3=C(C=C2)OCO3)(C4=CC5=C(C=C4)OCO5)O)C(=O)OC6=CC=C(C=C6)[N+](=O)[O-] [JZL-184] + N=C(N)NC(=N)NCCc1ccccc1 [Phenformin] (partner 250 µM)
In short: as §1

JZL-184 + AZD7762 = compound: C1CN(CCC1C(C2=CC3=C(C=C2)OCO3)(C4=CC5=C(C=C4)OCO5)O)C(=O)OC6=CC=C(C=C6)[N+](=O)[O-] [JZL-184] + NC(=O)Nc1cc(-c2cccc(F)c2)sc1C(=O)N[C@H]1CCCNC1 [AZD7762] (partner 0.2 µM)
In short: as §1

JZL-184 + Decitabine = compound: C1CN(CCC1C(C2=CC3=C(C=C2)OCO3)(C4=CC5=C(C=C4)OCO5)O)C(=O)OC6=CC=C(C=C6)[N+](=O)[O-] [JZL-184] + Nc1ncn([C@H]2C[C@H](O)[C@@H](CO)O2)c(=O)n1 [Decitabine] (partner 2 µM)
In short: as §1

| Cell Line | relative viability (JZL-184 + Bortezomib; first compound 0.04 µM) | relative viability (JZL-184 + Bortezomib; first compound 0.4 µM) | relative viability (JZL-184 + Bortezomib; first compound 1.265 µM) | relative viability (JZL-184 + Bortezomib; first compound 4 µM) | relative viability (JZL-184 + Linsitinib; first compound 0.04 µM) | relative viability (JZL-184 + Linsitinib; first compound 0.4 µM) | relative viability (JZL-184 + Linsitinib; first compound 1.265 µM) | relative viability (JZL-184 + Linsitinib; first compound 4 µM) | relative viability (JZL-184 + Phenformin; first compound 0.04 µM) | relative viability (JZL-184 + Phenformin; first compound 0.4 µM) | relative viability (JZL-184 + Phenformin; first compound 1.265 µM) | relative viability (JZL-184 + Phenformin; first compound 4 µM) | relative viability (JZL-184 + AZD7762; first compound 0.04 µM) | relative viability (JZL-184 + AZD7762; first compound 0.4 µM) | relative viability (JZL-184 + AZD7762; first compound 1.265 µM) | relative viability (JZL-184 + AZD7762; first compound 4 µM) | relative viability (JZL-184 + Decitabine; first compound 0.04 µM) | relative viability (JZL-184 + Decitabine; first compound 0.4 µM) | relative viability (JZL-184 + Decitabine; first compound 1.265 µM) | relative viability (JZL-184 + Decitabine; first compound 4 µM) |
| --- | --- | --- | --- | --- | --- | --- | --- | --- | --- | --- | --- | --- | --- | --- | --- | --- | --- | --- | --- | --- |
| 201T | 1.14 | 1.04 | 1.07 | 1.07 | 1.03 | 1.01 | 1.05 | 1.02 | 0.451 | 0.44 | 0.465 | 0.45 | 0.711 | 0.57 | 0.586 | 0.611 | 0.83 | 0.84 | 0.841 | 0.845 |
| A549 | – | – | – | – | 0.559 | 0.457 | 0.519 | 0.633 | 0.195 | 0.167 | 0.164 | 0.112 | – | – | – | – | 0.278 | – | 0.26 | 0.273 |
| A-427 | 1.05 | 0.965 | 1 | 0.918 | 1.15 | 1.17 | 1.18 | 1.1 | 0.308 | 0.327 | 0.441 | 0.306 | 0.807 | 0.722 | 0.838 | 0.703 | 0.617 | 0.585 | 0.599 | 0.537 |
| ABC-1 | 0.336 | 0.352 | 0.375 | 0.247 | 0.988 | 0.821 | 0.812 | 0.756 | 0.225 | 0.224 | 0.301 | 0.247 | – | – | 0.715 | 0.968 | 1.59 | 1.07 | 1.03 | 1.22 |
| BEN | 0.912 | 0.711 | 0.942 | 0.799 | 1.19 | 0.881 | 0.995 | 0.995 | 0.245 | 0.235 | 0.271 | 0.279 | 0.731 | 0.666 | 0.752 | 0.792 | 0.742 | 0.537 | 0.78 | 0.767 |
| CAL-12T | 1.15 | 0.942 | 1.18 | 1.08 | 1.06 | 0.775 | 0.828 | 0.75 | 0.751 | 0.26 | 0.626 | 0.539 | 0.712 | 0.531 | 0.7 | 0.613 | – | – | – | – |
| COR-L23 | 1.2 | 0.915 | 0.979 | 0.91 | 1.15 | 0.926 | 0.92 | 0.837 | 0.552 | 0.401 | 0.438 | 0.429 | – | – | – | – | 0.474 | 0.414 | 0.412 | 0.397 |
| COR-L 105 | 0.922 | 0.742 | 0.837 | 0.759 | 1.11 | 0.806 | 0.83 | 0.828 | 0.595 | 0.497 | 0.548 | 0.436 | – | – | – | – | 0.686 | 0.648 | 0.613 | 0.611 |
| ChaGo-K-1 | 1.45 | 0.984 | 1.1 | 1.03 | – | – | – | – | 0.616 | 0.449 | 0.467 | 0.44 | 0.865 | 0.761 | 0.933 | 0.832 | 0.505 | 0.498 | 0.514 | 0.526 |
| EKVX | 1.12 | 0.905 | 1.04 | 0.967 | 0.987 | 1.01 | 0.948 | 0.937 | 0.236 | 0.243 | 0.244 | 0.238 | 0.732 | 0.688 | 0.793 | 0.645 | 0.354 | 0.412 | 0.396 | 0.363 |
| EMC-BAC-2 | 1.2 | 1.02 | 1.16 | 1.07 | 0.855 | 0.793 | 0.791 | 0.784 | 0.609 | 0.476 | 0.568 | 0.456 | 1.16 | 1.11 | 1.14 | 1.08 | 1.02 | 0.946 | 0.958 | 0.944 |
| EPLC-272H | 1.03 | 0.735 | 1.06 | 0.839 | 1.19 | 1.11 | 1.35 | 1.14 | 0.303 | 0.293 | 0.351 | 0.34 | 0.194 | 0.186 | 0.211 | 0.302 | 0.356 | 0.386 | 0.396 | 0.384 |
| H3255 | 0.954 | 0.708 | 1.01 | 0.75 | 1.05 | 0.917 | 1.09 | 0.892 | 0.321 | 0.323 | 0.336 | 0.422 | 0.945 | 0.743 | 0.948 | 0.86 | 0.648 | 0.63 | 0.59 | 0.646 |
| HARA | 1.11 | 0.967 | 1.17 | 1.09 | 0.97 | 0.869 | 0.935 | 0.994 | 0.376 | 0.39 | 0.481 | 0.407 | 0.126 | – | 0.43 | 0.379 | 0.621 | – | 0.561 | 0.468 |
| HCC-15 | 1.11 | 0.987 | 1.03 | 0.995 | 0.939 | 0.889 | 1 | 0.781 | 0.548 | 0.467 | 0.485 | 0.454 | 1 | 1.21 | 1.3 | 1.14 | 0.625 | 0.692 | 0.647 | 0.575 |
| HCC-44 | 0.8 | 0.878 | 0.836 | 0.856 | 0.619 | 0.631 | 0.728 | 0.636 | 0.231 | 0.104 | 0.245 | 0.185 | 1.14 | 1.01 | 1.03 | 0.987 | 1.05 | 0.942 | 0.964 | 0.99 |
| HCC-78 | 0.384 | 0.521 | 0.667 | 0.516 | 0.355 | 0.513 | 0.535 | 0.474 | 0.63 | 0.611 | 0.754 | 0.752 | 0.594 | – | 0.688 | 0.618 | 0.77 | – | 0.793 | 0.646 |
